According to paper PMC11404609, “Gut microbiota-mediated C-sulfonate metabolism impairs the bioavailability and anti-cholestatic efficacy of andrographolide” (Gut Microbes, 2024):
Counter-ions that a name gives are not always drawn. Like-named read-outs stand apart in the source and are kept apart here. Each block holds one compound with its values, some of them ahead of it.

Tests used:
[1] = Tissue distribution of AP and APM in rats; format: in vivo
Procedure: (§1) Control and ABX rats were orally administered a single dose of AP at 120 mg/kg. Control, ABX and germ-free C57BL/6J mice were orally administered a single dose of AP at 100 mg/kg. After 90 min of AP administration, all animals were euthanized, and blood and tissue samples were collected for subsequent analysis.
(§2) An ACQUITY^TM UPLC-MS/MS system equipped with an ACQUITY^TM UPLC BEH C18 Column (50 × 2.1 mm I.D., 1.7 μm, Waters, Milford, MA, USA) was utilized for the quantification of AP and APM as previously described.[47] Briefly, the detection samples (50 μL) were mixed with 50 μL of IS (50 ng/mL). AP and APM were extracted by 400 μL cold methanol. Supernatants were dried under nitrogen stream. Then, the residue was dissolved with 50% methanol in water, centrifuged for 30 min at 13,000 rpm, and 10 µL of the supernatant was subjected to UPLC-MS/MS analysis. The mobile phases consisted of eluent A (water) and eluent B (methanol) with a gradient elution as follows: 0–0.8 min, 10% B; 0.8–1.2 min, 10–90% B; 1.2–5.0 min, 90% B; 5.0–5.5 min, 90–10% B; 5.5–7.0 min, 10% B. The flow rate was 0.3 mL/min and the injection volume of all samples was 10 μL. The quantification of AP, APM and IS was performed by UPLC-MS/MS using an MRM method with the transitions of m/z 349.1→m/z 287.2 for AP, m/z 413.2→m/z 287.2 for APM, m/z 269→m/z 133 for IS.
(§3) AP was administered intravenously and orally to detect the production of the C-sulfonate metabolite APM. In tissue distribution experiment, rats were given AP intravenously (24 mg/kg) or orally (120 mg/kg), while mice received AP intravenously (20 mg/kg) or orally (100 mg/kg). After a 90-minute interval, the animals were sacrificed, and their liver, kidneys, small intestine, and colon were collected for analysis. In pharmacokinetic studies, rats were administered 24 mg/kg of AP intravenously or 120 mg/kg of AP by oral gavage. Blood samples were collected at predetermined time intervals (0, 5, 10, 20, 30, 40, 60, 90, 120, 180, 240, 360, and 480 min), as described, to detect the content of AP and APM by UPLC-MS/MS.

[2] = Tissue distribution of AP and APM in mice; format: in vivo
Procedure: as §1
After 360 min of AP treatment, all mice were euthanized, and tissue samples were collected for subsequent analysis. […]
as §2, §3

[3] = AP incubation with duodenal perfusate; format: in vitro ADME, rat; conditions: AP 40 μM
Procedure: To investigate whether HSO3^- is the essential ligand for the C-sulfonate metabolism of AP, duodenal perfusate of SD rat was collected according to the method described in the literature^5. The duodenal perfusate was filtered by 0.22 μm Millex® needle filter, ultrafiltered by Amicon® Ultra filter or placed in an autoclave at 121°C for 2 hours, and then incubated with AP (40 μM) in vitro for 30, 60, 90 and 120 min. In another experiment, duodenal perfusate was autoclaved and then combined with HSO3^- (80 μM) and incubated with AP (40 μM) in vitro for 120 min. At the end of the incubation, 100 μL of ice-cold acetonitrile was quickly added to terminate the reaction. After centrifugation at 13000 rpm for 30 min, the supernatant was collected for UPLC-MS/MS analysis.

[4] = set-up: method as in PMID 21721007; conditions: AP incubated with rat duodenal perfusate; cited from earlier work
[5] = tested on: HSO3^−; experiment: HSO3^− concentration in the cecum; format: in vivo; conditions: mice
Procedure: Mice were orally administered APS reductase inhibitor bromocriptine mesylate (20 mg/kg, p.o.) or Na2SO4 (200 mg/kg, p.o.) or saline solution 1 week before AP treatment (a single dose of AP at 100 mg/kg, p.o.). After 360 min of AP treatment, all mice were euthanized, and tissue samples were collected for subsequent analysis. In specific cases, mice were orally administered D. piger suspension (0.2 mL, 1 × 10^9 CFU/mL) or saline solution 2 weeks before AP treatment (a single dose of AP at 100 mg/kg, p.o.).
(§4) For the determination of APS reductase concentration, the supernatant from mouse cecum contents and the D. piger strain were assessed using microorganism APS reductase elisa assay kit (Shanghai Senxingyan Biotechnology Co., Ltd., China), following the instructions provided with the kit. For the determination of HSO3^− concentration, cecum contents from mice or rats were weighed and homogenized in five volumes of normal saline (based on tissue weight). The homogenate was then subjected to centrifugation at 13,000 rpm and 4°C for 15 min. The supernatant (or perfusate) was collected and mixed with 0.2% formaldehyde, 0.05% basic fuchsin, and 0.01% EDTA-Na2 in a ratio of 1:1:1:9 under acidic conditions. To establish a standard curve, different concentrations of NaHSO3 were used. Subsequently, the absorbance of the resulting solutions was measured at a wavelength of 560 nm after 40 min.

[6] = set-up: method as in PMID 36809835, PMID 34142342; conditions: dose-dependent increase; cited from earlier work
[7] = tested on: intestinal flora of mice; experiment: Co-culturing AP with cecum samples from mice; format: in vitro ADME; conditions: bromocriptine mesylate 20 μg/mL
Procedure: (§5) The cecum contents from mice were collected and mixed with sterilized anaerobic medium in a ratio of 1.0 g to 10 mL, with gentle agitation. After filtered, the mixed medium containing the intestinal flora was placed in an anaerobic environment and preincubated at 37°C for 30 min before use. Mixed medium with or without APS reductase inhibitor bromocriptine mesylate (20 μg/mL) was incubated with AP (10 μg/mL), while autoclaved mixed medium without APS reductase inhibitor served as the control. Incubation was performed in a shaking incubator at 37°C for 6 h, with strict maintenance of anaerobic condition throughout the process.[44] Similarly, D. piger (0.2 mL, 1 × 10^8 CFU/mL) with or without inhibitor, was incubated with AP for 0, 3, 6, and 12 h, with autoclaved D. piger without inhibitor serving as the control. The reaction was terminated by adding cold methanol contained IS. And then samples were analyzed by UPLC-MS/MS to detect the concentrations of AP and APM. Concentrations of APS reductase and HSO3^− were also determined at the end of incubation.
as §4

[8] = tested on: D. piger; format: in vitro ADME, Desulfovibrio piger; conditions: D. piger with inhibitor
Procedure: as §5, with “The reaction was terminated by adding cold methanol contained IS.” left out
For the determination of APS reductase concentration, the supernatant from mouse cecum contents and the D. piger strain were assessed using microorganism APS reductase elisa assay kit (Shanghai Senxingyan Biotechnology Co., Ltd., China), following the instructions provided with the kit. […] Subsequently, the absorbance of the resulting solutions was measured at a wavelength of 560 nm after 40 min.

[9] = tested on: APS reductase; experiment: APS reductase level in feces by qPCR; format: in vivo; conditions: mice feces, bromocriptine mesylate 20 mg/kg p.o.
Procedure: Total RNA from frozen livers of Vehicle, AP (200 mg/kg, i.p.), ANIT (50 mg/kg), and ANIT+AP (200 mg/kg, i.p.) groups was extracted using the Animal Total RNA Isolation Kit (FOREGENE, China). cDNA was synthesized using a Color Reverse Transcription Kit (EZBioscience, Roseville, CA, USA). qPCR was performed using SYBR green/Rox qPCR master mix (EZBioscience, Roseville, CA, USA), according to the manufacturer’s instruction. The expression of target genes was normalized to β-actin, and fold changes were calculated using 2^–ΔΔCT method. For bacterial identification, genomic DNA of fecal flora was isolated using the TIANamp Stool DNA Kit (TIANGEN, Beijing, China) and qPCR was performed. The relative abundance and expression of Desulfovibrio spp., D. piger and APS reductase were normalized to the amounts of total bacteria (16S). All primers were synthesized by Tsingke Biotechnology Co., Ltd. (Beijing, China) and were listed in Supplementary Table S1.

[10] = Safety of APS reductase inhibitor (liver, renal, blood lipid indicators); format: in vivo; conditions: mice, 20 mg/kg orally for 14 days
Procedure: Supplementary Figure 5. […] (A-D) Liver function indicators including ALT, AST, TBA, and TBIL. (E-G) Renal function indicators including CREA, UREA, and UA. (H-K) Blood lipid indicators including TG, TC, HDL-C, and LDL-C. Inhibitor refers to the treatment with the APS reductase inhibitor bromocriptine mesylate at a dosage of 20 mg/kg, administered orally for 14 days in mice. Data are presented as mean ± SEM (n = 8 per group).

- levels of APM in plasma and tissues ([1]; ABX-treated rats vs Control, AP 120 mg/kg oral): reduced levels
- APM in all tissues ([1]; rats, oral administration of AP (120 mg/kg)): significant amount of APM was detected
- APM in the intestine, liver, and kidneys ([1]; rats, tail vein administration of AP (24 mg/kg)): undetectable
- concentration of APM in tissues ([2]; ABX-treated mice vs Control, AP 100 mg/kg oral): decreased
- concentration of APM in tissues ([2]; mice colonized with D. piger vs Control, AP 100 mg/kg p.o.): increase
- level of APM in the intestine and liver ([2]; mice of pharmacological experiment, AP 200 mg/kg, following ABX treatment vs Control): decreased significantly
- APM within the small intestine and liver ([2]; mice, AP 200 mg/kg p.o. with APS reductase inhibitor vs without): decrease
- APM in all tissues ([2]; mice, oral administration of AP (100 mg/kg)): significant amount of APM was detected
- APM in the intestine, liver, and kidneys ([2]; mice, tail vein administration of AP (20 mg/kg)): undetectable
- APM generation ([3]; autoclaved duodenal perfusate): not detectable
- APM generation ([3]; autoclaved perfusate with addition of HSO3^− (80 μM), 120 min): production of APM
- APM generation ([3]; duodenal perfusate after filtration and ultrafiltration): continued APM generation
SMILES: C=C1CCC2C(C)(CO)C(O)CCC2(C)C1CC(C1=CCOC1=O)S(=O)(=O)O [APM, 14-deoxy-12(R)-sulfo andrographolide]
- APM generation [4]: large amounts

SMILES: O=S(=O)([O-])[O-].[Na+].[Na+] [Na2SO4, sodium sulfate]
- HSO3^− content in the cecum ([5]; Na2SO4 200 mg/kg p.o.): significant increase

SMILES: CC[C@H]1[C@@H](O)[C@@H]2[C@H](CC[C@]3(C)[C@@H]([C@H](C)CCC(=O)O)CC[C@@H]23)[C@@]2(C)CC[C@@H](O)C[C@@H]12 [OCA, obeticholic acid]
- pruritus, share of treated patients [6]: roughly 40%

SMILES: CC(C)C[C@H]1C(=O)N2CCC[C@H]2[C@]2(O)O[C@](NC(=O)[C@@H]3C=C4c5cccc6[nH]c(Br)c(c56)C[C@H]4N(C)C3)(C(C)C)C(=O)N12 [bromocriptine mesylate]
- effect on conversion of AP into APM by the intestinal flora ([7]; AP 10 μg/mL, 6 h): effectively impeded
- concentrations of APS reductase and HSO3^− ([7]; co-culture of AP with cecum samples): significant decrease
- effect on D. piger metabolism of AP into APM (APS reductase and HSO3^− production) [8]: significantly inhibited
- HSO3^− content in the cecum ([5]; bromocriptine mesylate 20 mg/kg p.o.): decrease
- APS reductase level [9]: decrease
- damage to organism (liver function, renal function, blood lipid indicators) [10]: did not induce damage to organism
